Where two headings read alike, the source gives them in different places.

Data set [1] in a line: Octanol-water partition coefficient (log D7.4). Particulars: PBS pH 7.4 / n-octanol, 177Lu-labelled. It counts as physicochemical. How it is done:
Octanol-Water Partition Coefficient (log D7.4)
Approximately 1 MBq of the labelled tracer was dissolved in 1 mL of a 1:1 mixture (v/v) of PBS (pH 7.4) and n-octanol in a reaction vial (1.5 mL). After vigorous mixing of the suspension for 3 minutes at room temperature, the vial was centrifuged at 15000 g for 3 minutes (Biofuge 15, Heraus Sepatech, Osterode, Germany) and 100 μL aliquots of both layers were measured in a gamma counter. The experiment was repeated at least six times.

The target in data set [2] is T1, PSMA (Homo sapiens, UniProt Q04609).
T1 construct: PSMA-positive LNCAP cells (300265; Cell Lines Service, Eppelheim, Germany); host or cells: LNCaP cells
Briefly: PSMA affinity (IC50), competition with [125I]I-BA-KuE on LNCaP cells. It counts as binding. Particulars: natLu complex, on ice 60 min. How it is done:
A mixture of trypsin and EDTA (0.05%, 0.02%) in PBS (Biochrom) was used in order to harvest cells. Cells were counted with a Neubauer hemocytometer (Paul Marienfeld, Lauda-Königshofen, Germany).
Affinity Determinations (IC50)
In the case of metal-complexed ligands, the crude reaction mixture was diluted analogously, without further purification. Cells were harvested 24±2 hours prior to the experiment and seeded in 24-well plates (1.5×10^5 cells in 1 mL/well). […] The media of both steps were combined in one fraction and represent the amount of free radioligand. Afterwards, the cells were lysed with 250 μL of 1 M aqueous NaOH for at least 10 min. After a washing step (250 μL of 1 M NaOH), both fractions, representing the amount of bound ligand, were united. Quantification of all collected fractions was accomplished in a γ-counter. PSMA-affinity determinations were carried out at least three times per ligand.

For data set [3], the system named is LNCaP cells. As to the kind of experiment: Internalization studies in LNCaP cells. Type of data set: cell-based. Particulars: 37° C., 60 min. The protocol: PSMA-positive LNCAP cells (300265; Cell Lines Service, Eppelheim, Germany) were cultivated in Dulbecco modified Eagle medium/Nutrition Mixture F-12 with Glutamax (1:1) (DMEM-F12, Biochrom, Berlin, Germany) supplemented with fetal bovine serum (10%, FBS Zellkultur, Berlin, Germany) and kept at 37° C. in a humidified CO2 atmosphere (5%). A mixture of trypsin and EDTA (0.05%, 0.02%) in PBS (Biochrom) was used in order to harvest cells. Cells were counted with a Neubauer hemocytometer (Paul Marienfeld, Lauda-Königshofen, Germany).
For internalization studies, LNCaP cells were harvested 24±2 hours before the experiment and seeded in poly-L-lysine coated 24-well plates (1.25×10^5 cells in 1 mL/well, Greiner Bio-One, Kremsmünster, Austria). After removal of the culture medium, the cells were washed once with 500 μL DMEM-F12 (5% BSA) and left to equilibrate for at least 15 min at 37° C. in […] DMEM-F12 (5% BSA). Each well was treated with either 25 μL of either DMEM-F12 (5% BSA, control) or 25 μL of a 100 μM PMPA (2-(Phosphonomethyl)-pentandioic acid, Tocris Bioscience, Bristol, UK) solution in PBS, for blockade. Next, 25 μL of the radioactive-labelled PSMA inhibitor (10.0 nM in DMEM-F12 (5% BSA)) was added and the cells were incubated at 37° C. for 60 min. The experiment was terminated by placing the 24-well plate on ice for 3 min and consecutive removal of the medium. Each well was carefully washed with 250 μL of ice-cold HBSS. Both fractions from the first steps, representing the amount of free radioligand, were combined. Removal of surface bound activity was accomplished by incubation of the cells with 250 μL of ice-cold PMPA (10 μM in PBS) solution for 5 min and rinsed again with another 250 μL of ice-cold PBS. The internalized activity was determined by incubation of the cells in 250 μL […] aqueous NaOH for at least 10 min. The obtained fractions were combined with those of the subsequent wash step with 250 μL 1 M aqueous NaOH. Each experiment (control and blockade) was performed in triplicate. Free, surface bound and internalized activity was quantified in a y-counter. All internalization studies were accompanied by external reference studies, using ([^125I]I-BA)KuE (c=0.2 nM), which were performed analogously. Data were corrected for non-specific binding and normalized to the specific-internalization observed for the radioiodinated reference compound.

Data set [4] concerns the target T2, Human Serum Albumin (HSA) (Homo sapiens, UniProt P02768).
T2 construct: purchased Daicel H13H-2433
Briefly: Human serum albumin (HSA) binding by high performance affinity chromatography (HPAC). It counts as in vitro ADME. Particulars: Chiralpak HSA column. The protocol: Determination of Human Serum Albumin (HSA) Binding by High Performance Affinity Chromatography (HPAC)
HSA binding of the PSMA-addressing ligands was determined according to a previously published procedure via HPLC (Valko, K.; Nunhuck, S.; Bevan, C.; Abraham, M. H.; Reynolds, D. P. Journal of pharmaceutical sciences 2003, 92, 2236-2248). A Chiralpak HSA column (50×3 mm, 5 μm, H13H-2433, Daicel, Tokyo, Japan) was used at a constant flow rate of 0.5 mL/min at rt. Mobile phase A was a freshly prepared 50 mM aqueous solution of NH4OAc (pH 6.9) and mobile phase B was isopropanol (HPLC grade, VWR). The applied gradient for all experiments was 100% A (0 to 3 min), followed by 80% A (3 to 40 min). Prior to the experiment, the column was calibrated using nine reference substances with a HSA binding, known from literature, in the range of 13 to 99% (Valko, K.; Nunhuck, S.; Bevan, C.; Abraham, M. H.; Reynolds, D. P. Journal of pharmaceutical sciences 2003, 92, 2236-2248; Yamazaki, K.; Kanaoka, M. Journal of Pharmaceutical sciences 2004, 93, 1480-1494). All substances, including the examined PSMA ligands, were dissolved in a 1:1 mixture (v/v) of isopropanol and a 50 mM aqueous solution of NH4OAc (pH6.9) with a final concentration of 0.5 mg/mL. Non-linear regression was established with the OriginPro 2016G software (Northampton, United States) (FIG. 8).

Data set [5] is described as follows: Apparent molecular weight (MWapp).
The subject of data set [6] is LNCaP tumor-bearing male CB-17 SCID mice. As to the kind of experiment: Biodistribution studies 24 h p.i. Particulars: for In vivo biodistribution (24 h p.i.) blood / In vivo biodistribution (24 h p.i.) kidney / In vivo biodistribution (24 h p.i.) tumor: Table 6; for uptake in adrenals / uptake in blood / uptake in bone / uptake in heart / uptake in intestine / uptake in kidney / uptake in liver / uptake in lung / uptake in muscle / uptake in pancreas / uptake in parotid gl. / uptake in spleen / uptake in stomach / uptake in submand. gl. / uptake in tumor: mean.
Description: Approximately 3-7 MBq (0.1-0.2 nmol) of the radioactive-labelled PSMA inhibitors were injected into the tail vein of LNCaP tumor-bearing male CB-17 SCID mice and sacrificed after 24 h post injection. Selected organs were removed, weighted and measured in a γ-counter. Results are all decay corrected and given in % injected dose per gram of tissue (% iD/g). Tumor-to-organ ratios are calculated from animals' individual ratios and are given as mean±standard deviation.

T2 sequence (P02768 25-609): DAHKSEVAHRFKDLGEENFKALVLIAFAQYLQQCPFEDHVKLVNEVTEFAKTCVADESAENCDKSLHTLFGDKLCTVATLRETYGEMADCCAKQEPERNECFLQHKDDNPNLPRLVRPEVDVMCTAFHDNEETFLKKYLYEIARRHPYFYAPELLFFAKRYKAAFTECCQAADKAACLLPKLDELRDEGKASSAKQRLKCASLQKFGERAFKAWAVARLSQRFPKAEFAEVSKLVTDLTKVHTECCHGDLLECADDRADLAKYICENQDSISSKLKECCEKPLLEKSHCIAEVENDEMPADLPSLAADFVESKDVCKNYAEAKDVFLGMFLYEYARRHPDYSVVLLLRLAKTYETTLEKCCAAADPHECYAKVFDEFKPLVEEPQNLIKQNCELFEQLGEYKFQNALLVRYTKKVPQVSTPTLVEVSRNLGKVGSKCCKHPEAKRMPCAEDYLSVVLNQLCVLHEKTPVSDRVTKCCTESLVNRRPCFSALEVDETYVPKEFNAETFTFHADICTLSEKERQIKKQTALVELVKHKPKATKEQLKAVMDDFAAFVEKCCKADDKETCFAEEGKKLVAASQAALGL
T1 sequence (Q04609 whole entry): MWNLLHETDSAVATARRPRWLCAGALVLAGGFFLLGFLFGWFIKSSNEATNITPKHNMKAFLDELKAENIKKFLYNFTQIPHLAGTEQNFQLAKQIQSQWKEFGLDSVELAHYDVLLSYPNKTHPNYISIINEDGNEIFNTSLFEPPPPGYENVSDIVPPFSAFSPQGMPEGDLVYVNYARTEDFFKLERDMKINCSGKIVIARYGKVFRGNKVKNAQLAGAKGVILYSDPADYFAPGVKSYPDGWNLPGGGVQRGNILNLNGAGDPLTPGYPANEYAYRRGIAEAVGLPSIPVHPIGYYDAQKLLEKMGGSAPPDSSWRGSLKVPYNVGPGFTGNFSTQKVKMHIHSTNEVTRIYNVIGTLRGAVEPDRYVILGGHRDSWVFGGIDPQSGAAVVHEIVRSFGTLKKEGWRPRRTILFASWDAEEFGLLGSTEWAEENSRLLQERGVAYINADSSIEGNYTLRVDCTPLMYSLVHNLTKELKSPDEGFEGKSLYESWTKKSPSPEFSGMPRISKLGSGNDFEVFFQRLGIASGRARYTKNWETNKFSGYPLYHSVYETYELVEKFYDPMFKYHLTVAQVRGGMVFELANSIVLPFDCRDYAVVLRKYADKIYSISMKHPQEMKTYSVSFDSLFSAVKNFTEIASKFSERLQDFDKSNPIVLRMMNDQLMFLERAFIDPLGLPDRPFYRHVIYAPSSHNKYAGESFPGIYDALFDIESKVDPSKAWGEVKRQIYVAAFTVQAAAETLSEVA

With `O=C(O)CC[C@H](NC(=O)N[C@@H](CCCCNC(=O)[C@H](Cc1ccc2ccccc2c1)NC(=O)[C@H]1CC[C@H](CNC(=O)CN2CCN(CC(=O)O)CCN(CC(=O)O)CCN(CC(=O)O)CC2)CC1)C(=O)O)C(=O)O` [PSMA-617, reference compound], the logD7.4 in data set [1] is listed as −4.10. Moreover, the half-maximal inhibitory concentration (IC50) in data set [2] (read-out: IC50) turned out to be 3.3 ± 0.2 nM. This molecule also showed an Internalization in data set [3] (normalized to ([125I]I-BA)KuE) of 203 ± 10 % IBA-KuE. Besides, the “HSA (HPAC)” value in data set [4] was determined as 84.9%. Further, in data set [5], the MWapp worked out at 13.7 kDa. In addition, in data set [6] (Table 1), the “Kidneys (24 h)” value is listed as 9.8 ± 2.7 % iD/g and the “Tumor (24 h)” value was 11.6 ± 2.2 % iD/g. Also, the T/K-ratio in data set [6] (tumor/kidney, Table 1) is listed as 1.24 ± 0.29.
`CC(C)(C)[Si](F)(c1ccc(C(=O)NC[C@@H](NC(=O)[C@@H](CCCNC(N)=O)NC(=O)CC[C@H](C(=O)O)N2CCN(CC(=O)O)CCN(CC(=O)O)CCN(CC(=O)O)CC2)C(=O)NCCCCCC(=O)NCCC[C@@H](NC(=O)CC[C@H](NC(=O)N[C@@H](CCC(=O)O)C(=O)O)C(=O)O)C(=O)O)cc1)C(C)(C)C` [Compound 2C015] had a logD7.4 in data set [1] of −3.40 ± 0.10. Besides, the IC50 in data set [2] (read-out: IC50) worked out at 3.99 ± 0.74 nM. In data set [3] (normalized to reference), this molecule returned an Internalization of 226 ± 10 % IBA. Further, in data set [4], the “HSA (HPAC)” value turned out to be 95.0%. The MWapp in data set [5] was determined as 18.9 kDa. In addition, in data set [6], the “In vivo biodistribution (24 h p.i.) blood” value was found to be 0.0007 ± 0.0005 % iA/g, the “In vivo biodistribution (24 h p.i.) kidney” value turned out to be 2.23 ± 1.29 % iA/g, the “In vivo biodistribution (24 h p.i.) tumor” value was 8.98 ± 2.32 % iA/g and the uptake in adrenals is 0.1013 % iD/g. Moreover, in data set [6], the uptake in blood is recorded as 0.0007 % iD/g, the uptake in bone is 0.0223 % iD/g, the uptake in heart is listed as 0.0237 % iD/g and the uptake in intestine is reported as 0.1103 % iD/g. In data set [6], the uptake in kidney is 2.2339 % iD/g, the uptake in liver is listed as 0.164 % iD/g, the uptake in lung worked out at 0.0468 % iD/g and the uptake in muscle was found to be 0.0062 % iD/g. In addition, in data set [6], the uptake in pancreas is given as 0.0212 % iD/g, the “uptake in parotid gl.” value turned out to be 0.0674 % iD/g, the uptake in spleen was 0.2671 % iD/g and the uptake in stomach turned out to be 0.036 % iD/g. Besides, in data set [6], the “uptake in submand. gl.” value turned out to be 0.0389 % iD/g and the uptake in tumor came out at 8.9821 % iD/g.
In turn, `CC(C)(C)[Si](F)(c1ccc(C(=O)NCC(NC(=O)CCC(C(=O)O)N2CCN(CC(=O)O)CCN(CC(=O)O)CCN(CC(=O)O)CC2)C(=O)NC(CN)C(=O)NCCC(=O)NCCC(=O)NCCCC(NC(=O)CCC(NC(=O)NC(CCC(=O)O)C(=O)O)C(=O)O)C(=O)O)cc1)C(C)(C)C` (stereo not shown) [Compound 2C011] showed a logD7.4 in data set [1] of −2.88 ± 0.06. For the same molecule, in data set [2], the IC50 turned out to be 6.08 ± 0.16 nM. The same molecule showed an Internalization in data set [3] (normalized to reference) of 163.2 ± 6.91 % IBA. The “HSA (HPAC)” value in data set [4] is recorded as 89.8%. The MWapp in data set [5] turned out to be 18.9 kDa. For the same molecule, in data set [6], the “In vivo biodistribution (24 h p.i.) blood” value amounted to 0.0042 ± 0.0019 % iA/g, the “In vivo biodistribution (24 h p.i.) kidney” value amounted to 2.1 ± 0.49 % iA/g, the “In vivo biodistribution (24 h p.i.) tumor” value turned out to be 11.86 ± 0.75 % iA/g and the uptake in adrenals is given as 0.1488 % iD/g. In data set [6], the uptake in blood amounted to 0.0042 % iD/g, the uptake in bone was found to be 0.0363 % iD/g, the uptake in heart is 0.0254 % iD/g and the uptake in intestine is listed as 0.2229 % iD/g. Also, in data set [6], the uptake in kidney came out at 2.0983 % iD/g, the uptake in liver is 0.2848 % iD/g, the uptake in lung came out at 0.0469 % iD/g and the uptake in muscle worked out at 0.0067 % iD/g. Also, in data set [6], the uptake in pancreas is on record as 0.0264 % iD/g, the “uptake in parotid gl.” value was found to be 0.0857 % iD/g, the uptake in spleen turned out to be 0.3218 % iD/g and the uptake in stomach is 0.0829 % iD/g. In addition, in data set [6], the “uptake in submand. gl.” value was found to be 0.052 % iD/g and the uptake in tumor was 11.8594 % iD/g.
As for PSMA-617 [reference compound], in data set [6], the uptake in adrenals came to 0.1910 % iD/g, the uptake in blood is reported as 0.0056 % iD/g, the uptake in bone is recorded as 0.0267 % iD/g and the uptake in heart is listed as 0.0119 % iD/g. In data set [6], this molecule had an uptake in intestine of 0.1185 % iD/g, an uptake in kidney of 1.4421 % iD/g, an uptake in liver of 0.1167 % iD/g and an uptake in lung of 0.0393 % iD/g. In data set [6], this molecule gave an uptake in muscle of 0.0092 % iD/g, an uptake in pancreas of 0.0106 % iD/g, an uptake in spleen of 0.0812 % iD/g and an uptake in stomach of 0.0201 % iD/g. The same molecule came in with an uptake in tumor in data set [6] of 7.4568 % iD/g. Further, in data set [6] (n = 4, mean), the tumor-to-organ ratio adrenals was determined as 43.54, the tumor-to-organ ratio blood worked out at 1423.84, the tumor-to-organ ratio bone was determined as 471.67 and the tumor-to-organ ratio heart stood at 704.01. For the same molecule, in data set [6] (n = 4, mean), the tumor-to-organ ratio intestine is 90.33, the tumor-to-organ ratio kidney came to 5.85, the tumor-to-organ ratio liver came out at 91.22 and the tumor-to-organ ratio lung amounted to 210.40. In addition, in data set [6] (n = 4, mean), the tumor-to-organ ratio muscle is 855.38, the tumor-to-organ ratio pancreas is reported as 798.52, the tumor-to-organ ratio spleen came to 93.28 and the tumor-to-organ ratio stomach turned out to be 375.80.

For the origin of these results see patent US20240165281A1, “DUAL MODE RADIOTRACER AND THERAPEUTICS” (Technische Universität München, priority 2021, published 2024).
